Columns and labels:
[1] = biological target: T1, Progesterone receptor (Bos taurus, UniProt Q690N0); test: DRUGMATRIX: Progesterone radioligand binding (ligand: [3H] R-5020); assay type: tissue-based, Uterus; settings: Not Active = under 50% inhibition at 10 µM
T1 sequence (Q690N0 whole entry): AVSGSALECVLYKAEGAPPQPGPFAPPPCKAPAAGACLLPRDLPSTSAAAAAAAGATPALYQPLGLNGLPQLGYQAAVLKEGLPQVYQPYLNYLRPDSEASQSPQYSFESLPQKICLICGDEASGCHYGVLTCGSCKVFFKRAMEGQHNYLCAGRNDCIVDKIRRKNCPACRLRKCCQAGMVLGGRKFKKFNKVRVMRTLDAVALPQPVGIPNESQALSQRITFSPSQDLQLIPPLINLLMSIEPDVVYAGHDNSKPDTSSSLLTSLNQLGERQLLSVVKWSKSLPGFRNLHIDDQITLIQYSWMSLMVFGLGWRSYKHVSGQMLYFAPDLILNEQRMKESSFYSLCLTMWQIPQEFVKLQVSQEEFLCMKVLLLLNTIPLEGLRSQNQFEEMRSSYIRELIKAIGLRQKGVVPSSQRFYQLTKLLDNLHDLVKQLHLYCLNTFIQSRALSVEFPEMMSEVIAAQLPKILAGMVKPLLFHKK

[2] = biological target: T2, B2 bradykinin receptor (Homo sapiens, UniProt P30411); assay type: cell membranes, Membrane; settings: chem-1; further: in other assays of this panel Not Active means under 50% inhibition at 10 µM
T2 sequence (P30411 whole entry): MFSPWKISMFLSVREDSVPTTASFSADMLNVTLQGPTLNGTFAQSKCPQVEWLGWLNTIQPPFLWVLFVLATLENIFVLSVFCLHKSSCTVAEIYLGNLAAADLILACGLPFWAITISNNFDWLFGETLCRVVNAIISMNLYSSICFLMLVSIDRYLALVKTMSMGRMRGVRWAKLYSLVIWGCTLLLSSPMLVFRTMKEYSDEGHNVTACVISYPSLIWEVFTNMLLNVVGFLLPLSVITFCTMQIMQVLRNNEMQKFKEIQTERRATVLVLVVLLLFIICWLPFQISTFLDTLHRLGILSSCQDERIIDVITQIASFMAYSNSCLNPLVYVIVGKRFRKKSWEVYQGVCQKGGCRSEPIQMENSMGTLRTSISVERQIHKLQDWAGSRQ

[3] = biological target: Melanocortin receptor 5 (Homo sapiens, UniProt P33032); assay type: cell membranes, HEK293, Membrane; settings: hek293; further: in other assays of this panel Not Active means under 50% inhibition at 10 µM
Chain of Melanocortin receptor 5 (P33032 whole entry): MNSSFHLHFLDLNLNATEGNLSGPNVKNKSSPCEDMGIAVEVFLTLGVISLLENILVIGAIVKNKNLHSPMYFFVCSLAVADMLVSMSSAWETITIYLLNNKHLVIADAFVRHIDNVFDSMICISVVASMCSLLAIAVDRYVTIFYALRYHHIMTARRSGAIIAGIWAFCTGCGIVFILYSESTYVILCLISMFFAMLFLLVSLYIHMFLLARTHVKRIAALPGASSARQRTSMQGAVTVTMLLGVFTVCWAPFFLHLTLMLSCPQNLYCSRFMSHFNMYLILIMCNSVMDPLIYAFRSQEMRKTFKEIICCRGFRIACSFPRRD

[4] = biological target: Vasopressin V1a receptor (Homo sapiens, UniProt P37288); assay type: cell membranes, Membrane; settings: hek293; further: in other assays of this panel Not Active means under 50% inhibition at 10 µM
Chain of Vasopressin V1a receptor (P37288 whole entry): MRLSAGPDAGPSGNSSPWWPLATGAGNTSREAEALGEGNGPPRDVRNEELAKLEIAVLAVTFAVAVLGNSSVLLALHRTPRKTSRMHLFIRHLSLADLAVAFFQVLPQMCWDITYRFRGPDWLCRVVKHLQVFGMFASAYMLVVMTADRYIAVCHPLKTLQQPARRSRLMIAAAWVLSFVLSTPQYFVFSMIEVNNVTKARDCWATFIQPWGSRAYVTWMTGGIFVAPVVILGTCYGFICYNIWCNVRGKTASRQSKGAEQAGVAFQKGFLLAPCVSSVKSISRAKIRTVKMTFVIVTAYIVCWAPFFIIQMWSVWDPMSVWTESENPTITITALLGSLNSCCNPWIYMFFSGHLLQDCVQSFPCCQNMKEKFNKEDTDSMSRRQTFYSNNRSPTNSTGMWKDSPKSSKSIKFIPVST

[5] = biological target: T3, Nitric oxide synthase, inducible (Mus musculus, UniProt P29477); set-up: species or system Escherichia coli;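 further: inhibition of iNOS enzyme activity measured with L-arginine as substrate; in other assays of this panel Not Active means under 50% inhibition at 10 µM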
T3 sequence (P29477 whole entry): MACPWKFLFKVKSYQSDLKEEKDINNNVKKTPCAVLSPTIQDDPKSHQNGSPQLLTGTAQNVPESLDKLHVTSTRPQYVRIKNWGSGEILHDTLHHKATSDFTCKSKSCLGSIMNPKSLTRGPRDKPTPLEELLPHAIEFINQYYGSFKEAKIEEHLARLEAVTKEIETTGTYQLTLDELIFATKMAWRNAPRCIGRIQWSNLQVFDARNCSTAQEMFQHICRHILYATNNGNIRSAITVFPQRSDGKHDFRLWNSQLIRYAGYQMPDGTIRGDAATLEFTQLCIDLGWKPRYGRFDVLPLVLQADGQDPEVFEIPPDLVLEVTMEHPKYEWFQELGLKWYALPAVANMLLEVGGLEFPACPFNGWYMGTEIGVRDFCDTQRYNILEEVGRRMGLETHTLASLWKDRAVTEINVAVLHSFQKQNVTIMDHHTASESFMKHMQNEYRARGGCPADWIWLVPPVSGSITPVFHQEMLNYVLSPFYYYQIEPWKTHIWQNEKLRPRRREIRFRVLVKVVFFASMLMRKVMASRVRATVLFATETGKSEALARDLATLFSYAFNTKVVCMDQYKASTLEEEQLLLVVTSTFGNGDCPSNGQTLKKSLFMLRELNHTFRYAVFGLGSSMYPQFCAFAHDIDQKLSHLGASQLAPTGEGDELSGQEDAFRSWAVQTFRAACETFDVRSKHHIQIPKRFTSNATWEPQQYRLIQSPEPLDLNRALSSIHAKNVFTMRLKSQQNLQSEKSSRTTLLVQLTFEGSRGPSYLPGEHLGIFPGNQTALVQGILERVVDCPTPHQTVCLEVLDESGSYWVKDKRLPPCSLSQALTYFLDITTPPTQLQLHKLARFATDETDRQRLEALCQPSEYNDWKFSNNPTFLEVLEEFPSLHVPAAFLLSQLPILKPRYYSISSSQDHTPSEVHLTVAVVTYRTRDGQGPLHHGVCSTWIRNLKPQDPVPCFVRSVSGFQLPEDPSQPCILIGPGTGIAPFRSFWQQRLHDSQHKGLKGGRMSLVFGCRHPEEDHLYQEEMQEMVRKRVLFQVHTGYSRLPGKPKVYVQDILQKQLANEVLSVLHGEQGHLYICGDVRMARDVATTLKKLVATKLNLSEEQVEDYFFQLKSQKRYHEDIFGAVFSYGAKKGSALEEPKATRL

[6] = biological target: Vascular endothelial growth factor receptor 1 (Homo sapiens, UniProt P17948); assay type: cell-based; settings: huvec; further: in other assays of this panel Not Active means under 50% inhibition at 10 µM
Chain of Vascular endothelial growth factor receptor 1 (P17948 whole entry): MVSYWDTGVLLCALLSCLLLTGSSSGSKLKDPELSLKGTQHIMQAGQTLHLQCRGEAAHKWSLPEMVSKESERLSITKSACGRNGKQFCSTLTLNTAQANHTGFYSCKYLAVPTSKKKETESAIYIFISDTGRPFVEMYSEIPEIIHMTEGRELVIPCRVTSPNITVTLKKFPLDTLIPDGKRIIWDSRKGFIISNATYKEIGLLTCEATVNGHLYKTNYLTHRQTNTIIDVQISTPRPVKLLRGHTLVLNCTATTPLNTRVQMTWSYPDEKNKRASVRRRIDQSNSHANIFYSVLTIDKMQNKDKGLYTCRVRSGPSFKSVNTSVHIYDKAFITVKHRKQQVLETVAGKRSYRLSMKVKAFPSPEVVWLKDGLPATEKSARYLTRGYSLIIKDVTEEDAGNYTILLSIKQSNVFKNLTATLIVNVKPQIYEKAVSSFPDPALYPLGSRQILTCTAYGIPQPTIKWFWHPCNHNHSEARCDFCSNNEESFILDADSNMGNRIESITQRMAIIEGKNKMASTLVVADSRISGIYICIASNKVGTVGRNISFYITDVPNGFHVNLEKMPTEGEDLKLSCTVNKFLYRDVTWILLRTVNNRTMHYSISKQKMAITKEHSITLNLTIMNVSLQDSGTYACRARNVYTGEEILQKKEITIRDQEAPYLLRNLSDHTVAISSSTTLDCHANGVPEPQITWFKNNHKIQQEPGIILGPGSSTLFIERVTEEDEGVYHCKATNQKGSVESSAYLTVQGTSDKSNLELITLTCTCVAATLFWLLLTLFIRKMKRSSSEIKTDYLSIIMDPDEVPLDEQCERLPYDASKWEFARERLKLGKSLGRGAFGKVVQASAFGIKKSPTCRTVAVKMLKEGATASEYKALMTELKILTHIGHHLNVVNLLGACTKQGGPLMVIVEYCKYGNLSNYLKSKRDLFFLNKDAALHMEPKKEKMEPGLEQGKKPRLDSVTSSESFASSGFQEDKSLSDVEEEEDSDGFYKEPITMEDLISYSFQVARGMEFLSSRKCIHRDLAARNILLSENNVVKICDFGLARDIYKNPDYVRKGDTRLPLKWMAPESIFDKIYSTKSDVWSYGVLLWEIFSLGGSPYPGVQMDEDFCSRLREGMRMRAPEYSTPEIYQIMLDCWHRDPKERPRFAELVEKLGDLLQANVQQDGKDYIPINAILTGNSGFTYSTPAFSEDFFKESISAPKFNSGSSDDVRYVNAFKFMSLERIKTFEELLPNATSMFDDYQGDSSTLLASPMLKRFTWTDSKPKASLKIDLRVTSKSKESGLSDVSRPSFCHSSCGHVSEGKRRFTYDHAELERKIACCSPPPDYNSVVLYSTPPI

[7] = biological target: Cytochrome P450 3A4 (Homo sapiens, UniProt P08684); settings: bti-tn-5b1-4; further: in other assays of this panel Not Active means under 50% inhibition at 10 µM
Chain of Cytochrome P450 3A4 (P08684 whole entry): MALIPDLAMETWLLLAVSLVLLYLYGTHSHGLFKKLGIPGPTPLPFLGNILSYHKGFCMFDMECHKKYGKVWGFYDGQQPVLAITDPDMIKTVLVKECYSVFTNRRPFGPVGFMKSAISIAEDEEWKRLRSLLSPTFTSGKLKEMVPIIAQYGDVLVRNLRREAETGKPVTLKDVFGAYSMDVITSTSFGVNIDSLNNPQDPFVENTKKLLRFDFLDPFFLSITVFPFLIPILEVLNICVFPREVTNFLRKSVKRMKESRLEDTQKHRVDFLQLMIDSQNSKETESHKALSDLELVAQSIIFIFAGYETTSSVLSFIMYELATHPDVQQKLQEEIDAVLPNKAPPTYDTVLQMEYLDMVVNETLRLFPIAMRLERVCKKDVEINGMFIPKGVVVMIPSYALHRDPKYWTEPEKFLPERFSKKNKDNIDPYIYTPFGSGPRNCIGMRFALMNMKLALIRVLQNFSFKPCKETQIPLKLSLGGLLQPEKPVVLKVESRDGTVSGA

C[C@]12C=CC(=O)C=C1CC[C@@H]1[C@@H]2C(=O)C[C@@]2(C)[C@H]1CC[C@]2(O)C(=O)CO [PREDNISONE]
Not Active: IC50 [1] | IC50 [2] | IC50 [3] | IC50 [4] | IC50 [5] | IC50 [6]

OCCOCCN1CCN(C2=Nc3ccccc3Sc3ccccc32)CC1 [QUETIAPINE]
Not Active: IC50 [1] | IC50 [2] | IC50 [7] | Ki [7] | IC50 [3] | IC50 [4] | IC50 [5] | IC50 [6]

COC(=O)[C@H]1[C@H]2C[C@@H]3c4[nH]c5cc(OC)ccc5c4CCN3C[C@H]2C[C@@H](OC(=O)c2cc(OC)c(OC)c(OC)c2)[C@@H]1OC [RESERPINE]
Not Active: IC50 [1] | IC50 [2] | IC50 [7] | Ki [7] | IC50 [3] | IC50 [4] | IC50 [5] | IC50 [6]

O=C(O)c1ccccc1O [SALICYLIC ACID]
Not Active: IC50 [1] | IC50 [2] | IC50 [7] | Ki [7] | IC50 [3] | IC50 [4] | IC50 [5] | IC50 [6]

C[S+]([O-])c1ccc(-c2nc(-c3ccncc3)c(-c3ccc(F)cc3)[nH]2)cc1 (stereo unspecified) [SB-203580]
Not Active: IC50 [1] | IC50 [2] | IC50 [7] | Ki [7] | IC50 [3] | IC50 [4] | IC50 [5]

CC1CCC(NC(=O)N(CCCl)N=O)CC1 (stereo unspecified) [SEMUSTINE]
Not Active: IC50 [1] | IC50 [2] | IC50 [7] | Ki [7] | IC50 [3] | IC50 [4] | IC50 [5] | IC50 [6]

O=C1C[C@@H]2OCC=C3CN4CC[C@]56c7ccccc7N1[C@H]5[C@H]2[C@H]3C[C@H]46 [STRYCHNINE]
Not Active: IC50 [1] | IC50 [2] | IC50 [7] | Ki [7] | IC50 [3] | IC50 [4] | IC50 [5] | IC50 [6]

C[N+](C)(C)CCOC(=O)CCC(=O)OCC[N+](C)(C)C.[Cl-].[Cl-] [SUCCINYLCHOLINE CHLORIDE]
Not Active: IC50 [1] | IC50 [2] | IC50 [7] | Ki [7] | IC50 [3] | IC50 [4] | IC50 [5] | IC50 [6]

Nc1ccc(S(=O)(=O)NC(=O)c2ccccc2)cc1 [SULFABENZAMIDE]
Not Active: IC50 [1] | IC50 [2] | IC50 [7] | Ki [7] | IC50 [3] | IC50 [4] | IC50 [5] | IC50 [6]

CCCCCCCCNC(C)C(O)c1ccc(SC(C)C)cc1 (stereo unspecified) [SULOCTIDIL]
Not Active: IC50 [1] | IC50 [2] | IC50 [7] | Ki [7] | IC50 [3] | IC50 [4] | IC50 [5] | IC50 [6]

O=c1[nH]c(=O)n(C2CCCO2)cc1F (stereo unspecified) [TEGAFUR]
Not Active: IC50 [1] | IC50 [2] | IC50 [7] | Ki [7] | IC50 [3] | IC50 [4] | IC50 [5] | IC50 [6]

CN1CCN(CCCN2c3ccccc3Sc3ccc(C(F)(F)F)cc32)CC1 [TRIFLUOPERAZINE]
Not Active: IC50 [1] | IC50 [2] | IC50 [3] | IC50 [4] | IC50 [5] | IC50 [6]
